The structures appear in SMILES notation. Read-outs that look alike come from different tables or passages of the source.

The target of this assay is T1, hT1R1/hT1R3 umami receptor (Homo sapiens, UniProt Q7RTX0+Q7RTX1).
T1 construct: expressed in transfected cells; host or cells: HEK293 derivative stably expressing Gα15, clone I-17, expression induced with mifepristone
T1 sequence (Q7RTX1 21-841): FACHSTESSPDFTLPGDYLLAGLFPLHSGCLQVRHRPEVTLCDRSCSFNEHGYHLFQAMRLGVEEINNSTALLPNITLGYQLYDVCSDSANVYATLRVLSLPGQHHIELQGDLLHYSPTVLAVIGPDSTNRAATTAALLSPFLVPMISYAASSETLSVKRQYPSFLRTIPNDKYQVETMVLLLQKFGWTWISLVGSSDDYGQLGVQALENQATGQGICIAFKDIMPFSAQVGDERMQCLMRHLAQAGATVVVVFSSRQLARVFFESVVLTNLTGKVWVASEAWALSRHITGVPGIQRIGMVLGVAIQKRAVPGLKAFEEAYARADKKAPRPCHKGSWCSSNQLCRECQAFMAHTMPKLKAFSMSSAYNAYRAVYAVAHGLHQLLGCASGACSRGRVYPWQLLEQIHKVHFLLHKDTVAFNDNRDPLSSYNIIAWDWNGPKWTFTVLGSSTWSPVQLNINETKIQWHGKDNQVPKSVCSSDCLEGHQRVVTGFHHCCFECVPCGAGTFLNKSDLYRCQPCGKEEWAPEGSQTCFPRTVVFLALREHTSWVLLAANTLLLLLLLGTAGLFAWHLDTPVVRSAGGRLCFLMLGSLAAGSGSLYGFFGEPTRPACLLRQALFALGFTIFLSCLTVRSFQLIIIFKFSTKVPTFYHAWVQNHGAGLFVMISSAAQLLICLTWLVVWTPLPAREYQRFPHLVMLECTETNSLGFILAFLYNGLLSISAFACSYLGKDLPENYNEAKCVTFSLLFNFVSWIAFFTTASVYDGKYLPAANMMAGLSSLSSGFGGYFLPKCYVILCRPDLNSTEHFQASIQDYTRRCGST
T1 sequence (Q7RTX0 21-852): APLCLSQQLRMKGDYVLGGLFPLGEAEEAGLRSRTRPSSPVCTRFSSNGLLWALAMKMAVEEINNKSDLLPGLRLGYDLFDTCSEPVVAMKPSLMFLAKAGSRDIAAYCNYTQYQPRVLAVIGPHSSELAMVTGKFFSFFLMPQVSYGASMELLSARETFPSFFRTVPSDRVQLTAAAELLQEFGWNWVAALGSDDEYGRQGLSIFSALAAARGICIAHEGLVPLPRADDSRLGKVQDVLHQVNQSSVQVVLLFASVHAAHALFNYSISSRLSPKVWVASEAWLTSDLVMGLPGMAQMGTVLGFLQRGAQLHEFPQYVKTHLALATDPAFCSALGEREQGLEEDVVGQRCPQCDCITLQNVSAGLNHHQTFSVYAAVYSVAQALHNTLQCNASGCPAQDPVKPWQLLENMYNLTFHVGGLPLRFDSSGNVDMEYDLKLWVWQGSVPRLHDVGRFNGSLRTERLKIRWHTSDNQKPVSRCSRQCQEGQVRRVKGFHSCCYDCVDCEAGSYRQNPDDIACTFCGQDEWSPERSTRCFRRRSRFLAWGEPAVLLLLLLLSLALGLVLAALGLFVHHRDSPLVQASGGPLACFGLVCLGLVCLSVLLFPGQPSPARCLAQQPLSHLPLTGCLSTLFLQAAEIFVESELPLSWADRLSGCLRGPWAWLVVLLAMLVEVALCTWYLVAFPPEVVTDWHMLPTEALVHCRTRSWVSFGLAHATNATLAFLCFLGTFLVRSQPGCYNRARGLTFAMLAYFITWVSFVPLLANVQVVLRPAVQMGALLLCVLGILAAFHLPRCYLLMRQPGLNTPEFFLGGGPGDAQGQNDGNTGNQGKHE
The experiment in a line: In vitro hT1R1/hT1R3 umami taste receptor activation assay (FLIPR, dose response). The assay is classed as cell-based.

Where [1] appears, read: read-out: EC50 for activation of a hT1R1/hT1R3 umami receptor expressed in an HEK293 cell line.
The mark [2] stands for this setting: Table A, Umami Amides, read-out: Umami EC50.
Setting [3] is: Table C, Umami Ureas, read-out: Umami EC50.
Where [4] appears, read: opposite enantiomers compared, read-out: AFFINITY FOR T1R1/T1R3 SAVORY RECEPTOR EC50 UM.
Setting [5] is: Table D, Umami Acrylamides, read-out: Umami EC50.

For `COC(=O)[C@@H](CC(C)C)NC(=O)c1cc2cc(Cl)ccc2o1` [Example 32], the EC50 under setting [1] was determined as 0.82 µM.

`CCCC(CCC)NC(=O)c1cc2c(cc1C)OCO2` [Example 17, N-(heptan-4-yl)-6-methylbenzo[d][1,3]dioxole-5-carboxamide]: under setting [1], the EC50 was determined as 0.11 µM.

`COC(=O)c1ccc(NC(=O)c2c(Cl)ccc(Cl)c2OC)cc1` [Example A2, 4-(3,6-Dichloro-2-methoxy-benzoylamino)-benzoic acid methyl ester]: the EC50 under setting [2] came out at 0.93 µM.

On to `CCCC(CCC)NC(=O)Nc1ccc(OC)cc1Cl` [Example C21, 1-(2-chloro-4-methoxyphenyl)-3-(heptan-4-yl)urea], for which, under setting [3], the EC50 is 0.11 µM.

Consider `CCCC(CC)NC(=O)c1ccc(C)c(C)c1` (centres unmarked) [Example A56, N-(hexan-3-yl)-3,4-imethylbenzamide], for which, under setting [2], the EC50 worked out at 0.14 µM.

With `CCCC(CCC)NC(=O)c1cc2cccc(OC)c2o1` [Example A130, N-(heptan-4-yl)-7-methoxybenzofuran-2-carboxamide], the EC50 under setting [2] is 0.16 µM.

In the case of `CCOc1ccc(C(=O)N[C@H]2CCc3ccccc32)cc1C` [drawing 28, (S)-N-(2,3-dihydro-1H-inden-1-yl)-4-ethoxy-3-methylbenzamide], the EC50 under setting [4] came out at 0.85 µM.

Turning to `CCCC(CCC)NC(=O)/C=C/c1ccccc1F` [Example 85, 3-(2-Fluoro-phenyl)-N-(1-propyl-butyl)-acrylamide], under setting [1], the EC50 was determined as 0.16 µM.

On to `COc1ccc(C(=O)N[C@H]2CCCc3ccccc32)cc1C` [Example A109, (S)-4-methoxy-3-methyl-N-(1,2,3,4-tetrahydronaphthalen-1-yl)benzamide], for which, under setting [2], the EC50 worked out at 0.08 µM.

For the molecule `COc1cccc(C(=O)NC2CCCCC2C)c1N` (centres unmarked) [Example A125, 2-amino-3-methoxy-N-(2-methylcyclohexyl)benzamide], under setting [2], the EC50 worked out at 0.02 µM.

For `CCCC(CCC)NC(=O)c1ccc(OC)c([N+](=O)[O-])c1` [Example A120, N-(heptan-4-yl)-4-methoxy-3-nitrobenzamide], the EC50 under setting [2] came to 0.08 µM.

Consider `CCCC(CCC)NC(=O)c1ccc2c(c1)OC(C)(C)O2` [Example 20, N-(heptan-4-yl)-2,2-dimethylbenzo[d][1,3]dioxole-5-carboxamide], for which, under setting [1], the EC50 was found to be 2.7 µM.

Turning to `O=C(N[C@H]1CCOc2ccccc21)c1cccc(Cl)c1O` [Example A115, (s)-3-chloro-N-(chroman-4-yl)-2-hydroxybenzamide], the EC50 under setting [2] is 5 µM.

Turning to `O=C(N[C@H]1CCCc2ccccc21)c1ccc2c(c1)OCO2` [Example A47, (S)-N-(1,2,3,4-tetrahydronaphthalen-1-yl)benzo[d][1,3]dioxole-5-carboxamide], under setting [2], the EC50 was determined as 1.33 µM.

Take `COc1ccc(C(=O)NC(C)c2ccc(C)cc2)cc1Cl` (centres unmarked) [Example A100, 3-chloro-4-methoxy-N-(1-p-tolylethyl)benzamide]: the EC50 under setting [2] stood at 1.1 µM.

As to `COC(=O)[C@@H](CC(C)C)NC(=O)c1cc(OC)nc(OC)c1` [Example 93, (R)-methyl 2-(2,6-dimethoxyisonicotinamido)-4-methylpentanoate], the EC50 under setting [1] came to 1.91 µM.

As to `COc1ccc(CNC(=O)C(=O)NCC(C)c2ccccn2)c(OC)c1` (centres unmarked) [Example 144, N-(294-Dilmethoxybenzyl)-N′-(2-(pyridin-2-yl)propyl)oxalamide], under setting [1], the EC50 worked out at 1.07 µM.

For `CCc1ccc(CCNC(=O)c2ccc3c(c2)OCO3)cc1` [Example 112, Benzo[1,3]dioxole-5-carboxylic acid [2-(4-ethyl-phenyl)-ethyl]-amide], under setting [1], the EC50 was found to be 3.86 µM.

For `CCCCC(NC(=O)c1ccc2c(c1)OCO2)C(=O)OC` (centres unmarked) [Example A43, 2-[(Benzo[1,3]dioxole-5-carbonyl)-amino]-hexanoic acid methyl ester], the EC50 under setting [2] was found to be 0.49 µM.

As to `CCC(COC)NC(=O)/C=C/c1ccc(OC)cc1` (centres unmarked) [Example D14, (E)-N-(1-methoxybutan-2-yl)-3-(4-methoxyphenyl)acrylamide], the EC50 under setting [5] came to 1.43 µM.

On to `CCCOC(=O)[C@@H](CC(C)C)NC(=O)c1ccc2c(c1)OCO2` [Example A51, (R)-propyl 2-(benzo[d][1,3]dioxole-5-carboxamido)-4-methylpentanoate], for which the EC50 under setting [2] is 1.58 µM.

In the case of `COC(=O)[C@@H](CC(C)C)NC(=O)c1cc(C)c(OC)c(C)c1` [Example A95, (R)-methyl 2-(4-methoxy-3,5-dimethylbenzamido)-4-methylpentanoate], the EC50 under setting [2] worked out at 0.74 µM.

On to `CCCC(CCC)NC(=O)Nc1ccc(C)cc1Cl` [Example C20, 1-(2-chloro-4-methylphenyl)-3-(heptan-4-yl)urea], for which, under setting [3], the EC50 stood at 0.09 µM.

`CCCC(CC)NC(=O)c1cc2cc(OC)ccc2o1` (centres unmarked) [Example 29, N-(hexan-3-yl)-5-methoxybenzofuran-2-carboxamide]: the EC50 under setting [1] came to 0.4 µM.

For `COc1ccc(CNC(=O)c2ccccc2-c2ccccc2)c(OC)c1` [Example A104, Biphenyl-2-carboxylic acid 2,4-dimethoxy-benzylamide], the EC50 under setting [2] worked out at 1.37 µM.

With `CCCc1ccc(C(=O)N[C@H](CC(C)C)C(=O)OC)cc1` [Example A91, (R)-methyl 4-methyl-2-(4-propylbenzamido)pentanoate], the EC50 under setting [2] was determined as 0.62 µM.

`COc1ccc(CNC(=O)C(=O)NCCc2ccco2)c(OC)c1` [Example B1, N1-(2,4-dimethoxybenzyi)-N2-(2-(furan-2-yl)ethyl)oxalamide]: the EC50 (Table B, Umami Oxalamides, read-out: Umami EC50) worked out at 0.18 µM.

Regarding `COC(=O)[C@@H](CC(C)C)NC(=O)/C=C/c1ccccc1` [Example D11, (R)-methyl 2-cinnamamido-4-methylpentanoate], the EC50 under setting [5] was found to be 1.17 µM.

With `O=C(NCCc1ccccn1)C(=O)NCc1ccccc1O` [Example 148, N-(2-Hydroxybenzyl)-N′-(2-(pyridin-2-yl)ethyl)oxalamide], the EC50 under setting [1] was 3.11 µM.

On to `CC(C)c1ccc(NC(=O)NCCc2ccccn2)cc1` [Example C6, 1-(4-isopropylphenyl)-3-(2-(pyridin-2-yl)ethyl)urea], for which the EC50 under setting [3] is 0.98 µM.

As to `COC(=O)[C@@H](CC(C)C)NC(=O)c1ccc(C)c(OC)c1` [Example A73, (R)-methyl 2-(3-methoxy-4-methylbenzamido)-4-methylpentanoate], under setting [2], the EC50 is 0.34 µM.

`CCCC(CCC)NC(=O)c1cccc(C)c1N` [Example A127, 2-amino-N-(heptan-4-yl)-3-methylbenzamide]: the EC50 under setting [2] came to 0.14 µM.

With `COc1ccccc1NC(=O)NC1CCCCC1C` (centres unmarked) [Example C12, 1-(2-methoxyphenyl)-3-(2-methylcyclohexyl)urea], the EC50 under setting [3] turned out to be 1.67 µM.

In the case of `COc1cccc(C(=O)N[C@@H]2CCCc3ccccc32)c1N` [Example A108, (R)-2-amino-3-methoxy-N-(1,2,3,4-tetrahydronaplithalen-1-yl)benzamide], the EC50 under setting [2] came out at 0.09 µM.

As to `CCCC(C)NC(=O)c1ccc(OC)c(Cl)c1` (centres unmarked) [Example A80, 3-chloro-4-methoxy-N-(pentan-2-yl)benzamide], the EC50 under setting [2] was found to be 0.47 µM.

With `CCCC(CCC)NC(=O)Nc1ccccc1Cl` [Example C1, 1-(2-chlorophenyl)-3-(heptan-4-yl)urea], the EC50 under setting [3] was found to be 0.37 µM.

With `CCCCC(NC(=O)c1ccc(OC)c(Cl)c1)C(=O)OC` (centres unmarked) [Example A55, methyl 2-(3-chloro-4-methoxybenzamido)hexanoate], the EC50 under setting [2] turned out to be 0.12 µM.

On to `COc1ccc(C(=O)N[C@@H]2CCc3ccccc32)cc1C` [(R)-N-(2,3-dihydro-1H-inden-1-yl)-4-methoxy-3-methylbeuzamide], for which, under setting [4], the EC50 came out at 2.13 µM.

The values above are taken from patent US20060045953A1 (priority 2004, published 2006).
